Measured values reported in US8497371B2, “Pipemidic acid derivative autotaxin inhibitors” (University of Memphis Research Foundation, priority 2009, dated 2013).

Key:
Type in all cases: biochemical
ATX = ATX (Homo sapiens, UniProt Q13822); assay: ATX inhibition assay with FS-3 substrate; set-up: conditioned serum-free medium (CCM) from MDA-MB-435 cells as the source of ATX; endogenous in cells; host or cells: MDA-MB-435 cells (about 10x concentrated serum-free conditioned medium); conditions: for % Response at 10 μM (FS-3): 10 μM compound, FS-3 hydrolysis normalized to vehicle control (low = strong inhibition), mean ± S.D.; for single dose response comparison by aromatic substituent and position: Table 2, same values as % Response at 10 μM
Experimental: ATX inhibition was assayed using the substrate FS-3 (Echelon Biosciences, Inc., Salt Lake City, Utah, USA). The FS-3 assay used ˜10 times concentrated conditioned serum-free medium (CCM) from MDA-MB-435 cells as the source of ATX, while CCM comprised one-third of the total volume.
All assays were performed in 96-well plates with data read at 1 minute intervals by a Synergy2 system (BioTek, Winooski, Vt.). […] Results are shown at one hour, at which point all fluorescence and absorbance changes as a function of time were linear. All readings were normalized to vehicle control after subtraction of fluorescence in the absence of CCM. Data are shown as the mean±S.D. of at least three wells. All experiments were repeated at least twice and results are shown.

human NPP6 = biological target: T1, human NPP6 (Homo sapiens, UniProt Q6UWR7); assay: Determination of NPP6 inhibition (pNPPC substrate); conditions: 10 μM inhibitor
T1 construct: transfected with human NPP6ex^51 or human NPP7ex expression plasmids; made in house; host or cells: HEK293 cells, transient transfection, pcDNA3.1(+); unconcentrated conditioned medium (CM)
T1 sequence (Q6UWR7 23-419 limits assumed): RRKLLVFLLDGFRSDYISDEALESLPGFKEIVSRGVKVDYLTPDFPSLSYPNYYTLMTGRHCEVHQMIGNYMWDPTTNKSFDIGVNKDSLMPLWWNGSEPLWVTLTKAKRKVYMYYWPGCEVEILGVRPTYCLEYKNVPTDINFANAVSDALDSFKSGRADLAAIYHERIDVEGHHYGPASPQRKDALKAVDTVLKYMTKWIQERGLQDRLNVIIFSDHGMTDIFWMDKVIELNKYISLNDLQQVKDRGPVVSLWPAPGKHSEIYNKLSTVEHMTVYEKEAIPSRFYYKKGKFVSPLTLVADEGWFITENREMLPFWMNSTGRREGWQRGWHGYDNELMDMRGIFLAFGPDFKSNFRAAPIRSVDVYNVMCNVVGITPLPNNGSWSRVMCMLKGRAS
Experimental: (§1) Inhibitor selectivity was assayed using p-nitrophenylphosphoryl-choline (pNPPC) (Sigma-Aldrich, St. Louis, Mo.) as substrate for NPP6 and NPP7. The final volume (60 μL) included 20 μL (CM, NPP6 or CCM, NPP7, 20 μL inhibitor (10 μM including 1% DMSO) in assay buffer, and 20 μL pNPPC (10 mM, NPP6 or 1 NPP7) in assay buffer. NPP6 assay buffer contained 500 mM NaCl, 0.05% Triton X-100, 100 mM Tris-HCl (pH 9.0), whereas NPP7 assay buffer was comprised of 50 mM Tris HCl, pH 8.5, 150 mM NaCl, and 10 mM taurocholic acid. However, unlike the published methods, EDTA was not added to the NPP7 assay buffer. All assays were performed in 96-well, half area plates (Corning Inc., Lowell, Mass.) at 37° C. with data collected at 2 minute intervals using a Synergy2 absorbance plate reader (BioTek, Winooski, Vt.). Results are shown at the one hour time point, when all absorbance changes as a function of time were linear. Readings were normalized to vehicle control after subtraction of absorbance in the absence of CM or CCM. Data are shown as the mean±S.D. of at least three wells. All experiments were repeated twice and representative results are shown.
(§2) Assays were performed with CM or CCM from HEK293 cells transiently transfected with NPP6 and 7 expression plasmids, respectively. HEK293 cells were seeded in Dulbecco's modified Eagle's medium (DMEM) containing 10% fetal bovine serum, 100 U/ml penicillin, 100 μg/ml streptomycin (Hyclone, Logan, Utah), and 2 mM L-glutamine. HEK293 cells were grown overnight at 37° C. under 5% CO2 to 80% confluence. The cells were then transfected with human NPP6ex^51 or human NPP7ex expression plasmids in the pcDNA3.1(+) mammalian vector in the presence of Polyfect Transfection Reagent (Hyclone, Logan, Utah). Six hours after transfection, the culture medium was changed to serum free DMEM containing L-glutamine and cells were incubated for 48 hours. Expressed protein was collected (NPP6 and NPP7) and concentrated ˜10×(NPP7) using 10 kDa molecular weight cutoff filters (Millipore, Beverly, Mass.) in an Amicon pressure cell (Millipore, Beverly, Mass.).

human NPP7 = biological target: T2, human NPP7 (Homo sapiens, UniProt Q6UWV6); assay: Determination of NPP7 inhibition (pNPPC substrate); conditions: 10 μM inhibitor
T2 construct: transfected with human NPP6ex^51 or human NPP7ex expression plasmids; made in house; host or cells: HEK293 cells, transient transfection, pcDNA3.1(+); conditioned medium concentrated about 10x (CCM)
T2 sequence (Q6UWV6 22-433 limits assumed): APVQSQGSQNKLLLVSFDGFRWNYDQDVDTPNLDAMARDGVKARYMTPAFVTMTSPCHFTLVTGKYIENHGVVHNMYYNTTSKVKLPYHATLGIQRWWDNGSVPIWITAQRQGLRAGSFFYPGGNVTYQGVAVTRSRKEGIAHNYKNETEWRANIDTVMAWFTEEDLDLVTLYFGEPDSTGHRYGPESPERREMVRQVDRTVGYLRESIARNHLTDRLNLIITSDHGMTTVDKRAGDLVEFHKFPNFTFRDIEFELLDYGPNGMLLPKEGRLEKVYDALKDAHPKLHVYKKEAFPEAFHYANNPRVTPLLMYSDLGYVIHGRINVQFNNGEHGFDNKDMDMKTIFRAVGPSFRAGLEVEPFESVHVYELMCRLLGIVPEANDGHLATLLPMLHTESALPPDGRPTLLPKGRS
Experimental: as §1, §2

| Compound | % Response at 10 μM (FS-3) (ATX) [%] | single dose response comparison by aromatic substituent and position (ATX) | other results |
| --- | --- | --- | --- |
| CCn1cc(C(=O)Oc2ccccc2)c(=O)c2cnc(N3CCN(C(=S)Nc4ccccc4)CC3)nc21 [Compound 16, 2-(4-{[(phenyl)amino]carbonothioyl}-1-piperazinyl)-8-ethyl-5-oxo-5,8-dihydropyrido[2,3-d]pyrimidine-6-carboxylic acid phenyl] | 56.4 ± 1.0 |  |  |
| CCn1cc(C(=O)O)c(=O)c2cnc(N3CCN(C(=S)Nc4c(C)cc(C)cc4C)CC3)nc21 [Compound 8, 2-(4-{[(2,4,6-mesitylphenyl)amino]carbonothioyl}-1-piperazinyl)-8-ethyl-5-oxo-5,8-dihydropyrido[2,3-d]pyrimidine-6-carboxylic acid] | 53.5 ± 1.6 |  |  |
| CCn1cc(C(=O)O)c(=O)c2cnc(N3CCN(C(=S)Nc4ccccc4C(=O)OC)CC3)nc21 [Compound 5, 2-(4-{[(2-methylesterphenyl)amino]carbonothioyl}-1-piperazinyl)-8-ethyl-5-oxo-5,8-dihydropyrido[2,3-d]pyrimidine-6-carboxylic acid] | 51.2 ± 1.3 |  |  |
| CCn1cc(C(=O)O)c(=O)c2cnc(N3CCN(C(=S)Nc4ccc(OC)cc4)CC3)nc21 [Compound 24, 2-(4-{[(4-methoxyphenyl)amino]carbonothioyl}-1-piperazinyl)-8-ethyl-5-oxo-5,8-dihydropyrido[2,3-d]pyrimidine-6-carboxylic acid] | 79.7 ± 0.9 | 79.7 ± 0.9 |  |
| CCn1cc(C(=O)O)c(=O)c2cnc(N3CCN(C(=S)Nc4ccccc4-c4cccc5nsnc45)CC3)nc21 [Compound 10, 2-(4-{[(2-benzothiadiazolphenyl)amino]carbonothioyl}-1-piperazinyl)-8-ethyl-5-oxo-5,8-dihydropyrido[2,3-d]pyrimidine-6-carboxylic acid] | 63.2 ± 2.8 |  |  |
| CCn1cc(C(=O)O)c(=O)c2cnc(N3CCN(C(=S)Nc4ccccc4Cl)CC3)nc21 [Compound 17, 2-(4-{[(2-chlorophenyl)amino]carbonothioyl}-1-piperazinyl)-8-ethyl-5-oxo-5,8-dihydropyrido[2,3-d]pyrimidine-6-carboxylic acid] | 83.5 ± 8.2 | 83.5 ± 8.2 |  |
| 2-(4-{[(4-dimethylaminonapthylphenyl)amino]carbonothioyl}-1-piperazinyl)-8-ethyl-5-oxo-5,8-dihydropyrido[2,3-d]pyrimidine-6-carboxylic acid [Compound 2] | 59.9 ± 1.5 |  |  |
| CCn1cc(C(=O)O)c(=O)c2cnc(N3CCN(C(=S)Nc4ccccc4I)CC3)nc21 [Compound 26, 2-(4-{[(2-iodophenyl)amino]carbonothioyl}-1-piperazinyl)-8-ethyl-5-oxo-5,8-dihydropyrido[2,3-d]pyrimidine-6-carboxylic acid] | 68.4 ± 1.3 | 68.4 ± 1.3 |  |
| CCn1cc(C(=O)O)c(=O)c2cnc(N3CCN(C(=S)Nc4ccccc4F)CC3)nc21 [Compound 30, 2-(4-{[(2-fluorophenyl)amino]carbonothioyl}-1-piperazinyl)-8-ethyl-5-oxo-5,8-dihydropyrido[2,3-d]pyrimidine-6-carboxylic acid] | 77.3 ± 1.6 | 77.3 ± 1.6 |  |

Now from value to compound, other results behind:

| % Response at 10 μM (FS-3) (ATX) [%] | single dose response comparison by aromatic substituent and position (ATX) | Compound | other results |
| --- | --- | --- | --- |
| 40.9 ± 1.3 | 40.9 ± 1.3 | CCn1cc(C(=O)O)c(=O)c2cnc(N3CCN(C(=S)Nc4cccc(OC)c4)CC3)nc21 [Compound 19, 2-(4-{[(3-methoxyphenyl)amino]carbonothioyl}-1-piperazinyl)-8-ethyl-5-oxo-5,8-dihydropyrido[2,3-d]pyrimidine-6-carboxylic acid] | effect on activity of NPP6 (human NPP6): None of the compounds affected the activity; effect on activity of NPP7 (human NPP7): None of the compounds affected the activity; IC50 (ATX; FS-3 substrate): 17.7 ± 0.3 µM; inhibition at 10 µM (ATX; single dose 10 μM, % inhibition, read-out: inhibition of ATX-mediated hydrolysis of FS-3): ≥ 50% |
| 64.1 ± 2.8 |  | CCn1cc(C(=O)O)c(=O)c2cnc(N3CCN(C(=S)Nc4ccc(S(=O)(=O)N5CCOCC5)cc4)CC3)nc21 [Compound 6, 2-(4-{[(4-morpholinosulfonylphenyl)amino]carbonothioyl}-1-piperazinyl)-8-ethyl-5-oxo-5,8-dihydropyrido[2,3-d]pyrimidine-6-carboxylic acid] |  |
| 72.3 ± 0.4 |  | CCn1cc(C(=O)O)c(=O)c2cnc(N3CCN(C(=S)Nc4cccc(Cl)c4Cl)CC3)nc21 [Compound 15, 2-(4-{[(2,3-dichlorophenyl)amino]carbonothioyl}-1-piperazinyl)-8-ethyl-5-oxo-5,8-dihydropyrido[2,3-d]pyrimidine-6-carboxylic acid] |  |
| 68.6 ± 1.1 |  | CCn1cc(C(=O)O)c(=O)c2cnc(N3CCN(C(=S)Nc4ccc(-n5cccn5)cc4)CC3)nc21 [Compound 9, 2-(4-{[(4-pyrazolephenyl)amino]carbonothioyl}-1-piperazinyl)-8-ethyl-5-oxo-5,8-dihydropyrido[2,3-d]pyrimidine-6-carboxylic acid] |  |
| 72.7 ± 2.2 |  | CCn1cc(C(=O)O)c(=O)c2cnc(N3CCN(C(=S)Nc4ccc(C(=O)O)cc4)CC3)nc21 [Compound 4, 2-(4-{[(4-carboxylphenyl)amino]carbonothioyl}-1-piperazinyl)-8-ethyl-5-oxo-5,8-dihydropyrido[2,3-d]pyrimidine-6-carboxylic acid] |  |
| 97.6 ± 1.8 | 97.6 ± 1.8 | CCn1cc(C(=O)O)c(=O)c2cnc(N3CCN(C(=S)Nc4ccccc4OC)CC3)nc21 [Compound 21, 2-(4-{[(2-methoxyphenyl)amino]carbonothioyl}-1-piperazinyl)-8-ethyl-5-oxo-5,8-dihydropyrido[2,3-d]pyrimidine-6-carboxylic acid] |  |
| 100.8 ± 1.9 | 100.8 ± 1.9 | CCn1cc(C(=O)O)c(=O)c2cnc(N3CCN(C(=S)Nc4ccccc4C(F)(F)F)CC3)nc21 [Compound 12, 2-(4-{[(2-trifluoromethylphenyl)amino]carbonothioyl}-1-piperazinyl)-8-ethyl-5-oxo-5,8-dihydropyrido[2,3-d]pyrimidine-6-carboxylic acid] |  |
